US5296498A, “Guanidine compounds” (Adir et Compagnie, priority 1990, dated 1994)
Counter-ions that a name gives are not always drawn.

Tests used:
5-HT1A receptors = biological target: T1, 5-HT1A receptors (Homo sapiens, UniProt P08908); assay: In vitro affinity test for 5-HT1A receptors; details: conventional binding technique, read-out: Ki with respect to 5-HT1A receptors
T1 sequence (P08908 1-422): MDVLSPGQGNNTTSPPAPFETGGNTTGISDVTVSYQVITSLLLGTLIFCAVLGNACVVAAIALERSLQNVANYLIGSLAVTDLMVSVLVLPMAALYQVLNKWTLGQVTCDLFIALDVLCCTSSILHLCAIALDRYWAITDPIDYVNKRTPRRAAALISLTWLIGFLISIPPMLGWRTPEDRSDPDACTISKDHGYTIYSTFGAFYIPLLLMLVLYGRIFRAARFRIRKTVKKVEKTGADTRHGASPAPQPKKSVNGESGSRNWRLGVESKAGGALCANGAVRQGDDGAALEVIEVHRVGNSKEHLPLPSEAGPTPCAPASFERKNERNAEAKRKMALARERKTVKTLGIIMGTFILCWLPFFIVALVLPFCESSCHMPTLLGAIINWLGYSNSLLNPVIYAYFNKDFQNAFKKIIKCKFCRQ
Experimental: (§1) EXAMPLE 8: In vitro affinity test for endazoline, α1 and α2 and 5-HT receptors
(§2) The in vitro affinity tests for endazoline receptors were carried out according to a technique described by A. Parini et al. (Biochem. and Biophys. Res. Comm. 147(3), 1055, 1987), and according to conventional binding techniques for the other receptors.

5 HT2 receptors = 5 HT2 receptors (Homo sapiens, UniProt P28223); assay: In vitro affinity test for 5-HT2 receptors; details: conventional binding technique, read-out: Ki with respect to 5 HT2 receptors
Experimental: as §1, §2

5-HT1B receptors = 5-HT1B receptors (Rattus norvegicus, UniProt P28564); assay: In vitro affinity test for 5-HT1B receptors; details: conventional binding technique, read-out: Ki with respect to 5-HT1B receptors
Experimental: as §1, §2

5-HT3 receptors = biological target: T2, 5-HT3 receptors (Homo sapiens, UniProt P46098); assay: In vitro affinity test for 5-HT3 receptors; details: conventional binding technique, read-out: Ki with respect to 5-HT3 receptors
T2 sequence (P46098 24-478): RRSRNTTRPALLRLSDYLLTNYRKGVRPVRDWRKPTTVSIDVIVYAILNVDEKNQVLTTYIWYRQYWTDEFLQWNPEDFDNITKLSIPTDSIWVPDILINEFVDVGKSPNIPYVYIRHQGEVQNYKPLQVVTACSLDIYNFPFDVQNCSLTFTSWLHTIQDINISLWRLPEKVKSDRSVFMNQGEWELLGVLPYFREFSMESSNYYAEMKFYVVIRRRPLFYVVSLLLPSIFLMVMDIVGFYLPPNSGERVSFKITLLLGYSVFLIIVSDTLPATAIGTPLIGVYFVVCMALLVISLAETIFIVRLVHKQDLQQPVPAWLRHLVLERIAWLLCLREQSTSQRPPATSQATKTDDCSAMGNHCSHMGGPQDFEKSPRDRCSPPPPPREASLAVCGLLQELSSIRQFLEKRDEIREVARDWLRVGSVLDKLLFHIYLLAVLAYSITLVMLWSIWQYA
Experimental: as §1, §2

5 HT2 receptors, sequence (P28223 whole entry): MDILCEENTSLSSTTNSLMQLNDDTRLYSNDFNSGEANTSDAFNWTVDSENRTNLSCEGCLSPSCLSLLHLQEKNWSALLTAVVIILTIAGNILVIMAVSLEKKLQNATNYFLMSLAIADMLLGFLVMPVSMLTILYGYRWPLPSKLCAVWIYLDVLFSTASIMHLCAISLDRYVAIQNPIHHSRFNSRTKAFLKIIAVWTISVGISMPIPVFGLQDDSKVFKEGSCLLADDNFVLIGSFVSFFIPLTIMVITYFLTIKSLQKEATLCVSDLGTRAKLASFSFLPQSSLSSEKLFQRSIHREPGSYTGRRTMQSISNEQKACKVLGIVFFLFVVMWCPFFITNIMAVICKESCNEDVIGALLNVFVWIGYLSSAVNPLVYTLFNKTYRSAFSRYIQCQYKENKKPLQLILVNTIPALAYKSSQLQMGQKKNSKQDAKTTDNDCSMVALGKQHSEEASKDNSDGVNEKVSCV
5-HT1B receptors, sequence (P28564 whole entry): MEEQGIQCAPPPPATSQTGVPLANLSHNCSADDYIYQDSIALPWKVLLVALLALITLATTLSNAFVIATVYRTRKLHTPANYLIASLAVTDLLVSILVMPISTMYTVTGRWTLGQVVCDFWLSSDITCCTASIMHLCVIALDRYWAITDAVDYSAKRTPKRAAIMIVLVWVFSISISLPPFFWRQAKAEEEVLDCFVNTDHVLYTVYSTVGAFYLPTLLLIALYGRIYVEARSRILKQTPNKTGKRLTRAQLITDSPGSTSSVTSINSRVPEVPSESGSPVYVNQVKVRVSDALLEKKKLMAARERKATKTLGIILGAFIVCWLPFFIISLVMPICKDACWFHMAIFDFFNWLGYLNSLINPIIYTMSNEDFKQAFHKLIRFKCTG

Ki (5-HT1A receptors): ~10 µM | Ki (5 HT2 receptors): ~20 µM | Ki (5-HT1B receptors): ~100 µM | Ki (5-HT3 receptors): ~2 µM
Structure (SMILES): N=C(N)NN=CC(C1CC1)C1CC1 [Example 2, (2,2-Dicyclopropylethylidene)aminoguanidine hydrochloride]
